Measurements reported in patent publication US20220177968A1, “METHODS FOR DETECTING OR REDUCING THE INCIDENCE OF ADVERSE DRUG REACTIONS” (CHANG GUNG MEMORIAL HOSPITAL, LINKOU, priority 2019, published 2022).
“And” between values parts separate entries of the source, which are not always exact repeats. Equal values may be shown once.

What was measured:
[1] = system: patients with CBZ-DRESS, European descent; experiment: HLA allele association with CBZ-induced DRESS (case-control, HLA typing); format: in vivo, human; details: for Odds ratio (95% CI): CBZ-DRESS cases vs European general population; for SCAR case N (%), allele carriers among cases: CBZ-DRESS patients
Excerpt: (§1) A total of 28 patients of European descent with CBZ-SJS/TEN were enrolled in this study. SJS/TEN is characterized by a rapidly developing exanthema of purpuric macules and target-like lesions with skin detachment accompanied by hemorrhagic-erosive mucosal involvement. Skin detachment in SJS patients affects less than 10% of body surface area (BSA), while TEN patients have skin detachment greater than 30% of BSA. Detachment of 10-30% is defined as SJS/TEN-overlap, reflecting a continuum of severity variants of one disease entity. Patients with CBZ-DRESS were also enrolled for comparison. HLA-A and HLA-B genotypes of patients with CBZ-SJS/TEN were determined by SeCore HLA sequence-based typing (Invitrogen, Life Technologies, USA). Furthermore, the HLA genotypes for patients with CBZ-DRESS and general population (the control group) were also determined. Statistical analyses were performed using SPSS 21.0 (IBM, Armonk, N.Y.). Comparisons of genotype frequencies between groups were performed using Fisher exact tests. Differences were considered statistically significant at p-values of less than 0.05.

[2] = system: European descent patients with CBZ-induced SJS/TEN; experiment: HLA-A/B allele association with CBZ-induced SJS/TEN (case-control, sequence-based HLA typing); format: in vivo, human; details: for OR (95% CI) / Odds ratio (95% CI): CBZ-SJS/TEN cases vs European general population; for SJS/TEN N (%), allele carriers among cases / SCAR case N (%), allele carriers among cases: CBZ-SJS/TEN patients of European descent
Excerpt: as §1

Odds ratio (95% CI) ([1]; HLA-A*31:01): 49.9 (12.9-193.6) | Sensitivity (%) ([1]; HLA-A*31:01 as marker of CBZ-DRESS): 70.00% | Odds ratio (95% CI) ([1]; HLA-B*38:01): 1.2 (0.1-21.0) | SCAR case N (%), allele carriers among cases ([1]; HLA-B*38:01): (0%) | Sensitivity (%) ([1]; HLA-B*38:01 as marker of CBZ-DRESS): 0% | Odds ratio (95% CI) ([1]; HLA-B*57:01/A*31:01/B*38:01): 14.1 (3.6-54.5) | SCAR case N (%), allele carriers among cases ([1]; HLA-B*57:01/A*31:01/B*38:01): (70.00%) | Sensitivity (%) ([1]; HLA-B*57:01/A*31:01/B*38:01 as marker of CBZ-DRESS): 70.00% | Odds ratio (95% CI) ([1]; HLA-B*57:01/A*31:01): 18.6 (4.8-71.9) | SCAR case N (%), allele carriers among cases ([1]; HLA-B*57:01/A*31:01): (70.00%) | Sensitivity (%) ([1]; HLA-B*57:01/A*31:01 as marker of CBZ-DRESS): 70.00% | Odds ratio (95% CI) ([1]; HLA-B*57:01/B*38:01): 0.4 (0-7.0) | SCAR case N (%), allele carriers among cases ([1]; HLA-B*57:01/B*38:01): (0%) | Sensitivity (%) ([1]; HLA-B*57:01/B*38:01 as marker of CBZ-DRESS): 0% | Odds ratio (95% CI) ([1]; HLA-B*57:01): 0.7 (0.0-11.3) | SCAR case N (%), allele carriers among cases ([1]; HLA-B*57:01): (0%) | Sensitivity (%) ([1]; HLA-B*57:01 as marker of CBZ-DRESS): 0% | OR (95% CI) ([2]; HLA-A*01:01): 2.2 (1.1-4.7) | SJS/TEN N (%), allele carriers among cases ([2]; HLA-A*01:01): 14/28 (50.0%) | OR (95% CI) ([2]; HLA-A*02:01): 0.5 (0.2-1.0) | SJS/TEN N (%), allele carriers among cases ([2]; HLA-A*02:01): 11/28 (39.29%) | OR (95% CI) ([2]; HLA-A*24:02): 0.6 (0.2-1.8) | SJS/TEN N (%), allele carriers among cases ([2]; HLA-A*24:02): 3/28 (10.71%) | OR (95% CI) ([2]; HLA-A*26:01): 3.5 (1.3-9.0) | SJS/TEN N (%), allele carriers among cases ([2]; HLA-A*26:01): 5/28 (17.86%) | OR (95% CI) ([2]; HLA-A*31:01): 3.5 (1.2-10.2) and 3.6 (1.2-10.3) | Sensitivity (%) ([2]; HLA-A*31:01 as marker of CBZ-SJS/TEN): 14.29% | OR (95% CI) ([2]; HLA-B*08:01): 1.5 (0.7-3.5) | SJS/TEN N (%), allele carriers among cases ([2]; HLA-B*08:01): 8/28 (28.57%) | OR (95% CI) ([2]; HLA-B*13:02): 1.8 (0.5-6.0) | SJS/TEN N (%), allele carriers among cases ([2]; HLA-B*13:02): 3/28 (10.71%) | OR (95% CI) ([2]; HLA-B*15:02): 44.4 (2.2-879.5) | SJS/TEN N (%), allele carriers among cases ([2]; HLA-B*15:02): 0/28 (0%) | OR (95% CI) ([2]; HLA-B*18:01): 1.1 (0.3-3.8) | SJS/TEN N (%), allele carriers among cases ([2]; HLA-B*18:01): 3/28 (10.71%) | Sensitivity (%) ([2]; HLA-B*38:01 as marker of CBZ-SJS/TEN): 14.29% | OR (95% CI) ([2]; HLA-B*44:02): 0.2 (0.0-1.4) | SJS/TEN N (%), allele carriers among cases ([2]; HLA-B*44:02): 1/28 (3.57%) | OR (95% CI) ([2]; HLA-B*44:03): 1.9 (0.6-5.4) | SJS/TEN N (%), allele carriers among cases ([2]; HLA-B*44:03): 4/28 (14.29%) | Odds ratio (95% CI) ([2]; HLA-B*57:01/A*31:01/B*38:01): 9.3 (4.4-19.9) | SCAR case N (%), allele carriers among cases ([2]; HLA-B*57:01/A*31:01/B*38:01): (60.71%) | Sensitivity (%) ([2]; HLA-B*57:01/A*31:01/B*38:01 as marker of CBZ-SJS/TEN): 60.71% | Odds ratio (95% CI) ([2]; HLA-B*57:01/A*31:01): 8.0 (3.8-16.7) | SCAR case N (%), allele carriers among cases ([2]; HLA-B*57:01/A*31:01): (50.00%) | Sensitivity (%) ([2]; HLA-B*57:01/A*31:01 as marker of CBZ-SJS/TEN): 50.00% | Odds ratio (95% CI) ([2]; HLA-B*57:01/B*38:01): 8.6 (4.1-18.1) | SCAR case N (%), allele carriers among cases ([2]; HLA-B*57:01/B*38:01): (50.00%) | Sensitivity (%) ([2]; HLA-B*57:01/B*38:01 as marker of CBZ-SJS/TEN): 50.00% | Sensitivity (%) ([2]; HLA-B*57:01 as marker of CBZ-SJS/TEN): 39.29%
SMILES: NC(=O)N1c2ccccc2C=Cc2ccccc21 [CBZ, Carbamazepine]
